Experimental data published in patent publication US20240043386A1, “Modulators of the Cystic Fibrosis Transmembrane Conductance Regulator Protein and Methods of Use” (AbbVie Global Enterprises Ltd., priority 2021, published 2024).

Target: T1, F508del/F508del CFTR (Homo sapiens, UniProt P13569, DEL508-508)
T1 construct: cells isolated from CF patients with the homozygous mutation; endogenous in cells; host or cells: primary human bronchial epithelial (hBE) cells from CF patients homozygous for F508del
T1 sequence (P13569 with tags, fused parts or gaps DEL508-508): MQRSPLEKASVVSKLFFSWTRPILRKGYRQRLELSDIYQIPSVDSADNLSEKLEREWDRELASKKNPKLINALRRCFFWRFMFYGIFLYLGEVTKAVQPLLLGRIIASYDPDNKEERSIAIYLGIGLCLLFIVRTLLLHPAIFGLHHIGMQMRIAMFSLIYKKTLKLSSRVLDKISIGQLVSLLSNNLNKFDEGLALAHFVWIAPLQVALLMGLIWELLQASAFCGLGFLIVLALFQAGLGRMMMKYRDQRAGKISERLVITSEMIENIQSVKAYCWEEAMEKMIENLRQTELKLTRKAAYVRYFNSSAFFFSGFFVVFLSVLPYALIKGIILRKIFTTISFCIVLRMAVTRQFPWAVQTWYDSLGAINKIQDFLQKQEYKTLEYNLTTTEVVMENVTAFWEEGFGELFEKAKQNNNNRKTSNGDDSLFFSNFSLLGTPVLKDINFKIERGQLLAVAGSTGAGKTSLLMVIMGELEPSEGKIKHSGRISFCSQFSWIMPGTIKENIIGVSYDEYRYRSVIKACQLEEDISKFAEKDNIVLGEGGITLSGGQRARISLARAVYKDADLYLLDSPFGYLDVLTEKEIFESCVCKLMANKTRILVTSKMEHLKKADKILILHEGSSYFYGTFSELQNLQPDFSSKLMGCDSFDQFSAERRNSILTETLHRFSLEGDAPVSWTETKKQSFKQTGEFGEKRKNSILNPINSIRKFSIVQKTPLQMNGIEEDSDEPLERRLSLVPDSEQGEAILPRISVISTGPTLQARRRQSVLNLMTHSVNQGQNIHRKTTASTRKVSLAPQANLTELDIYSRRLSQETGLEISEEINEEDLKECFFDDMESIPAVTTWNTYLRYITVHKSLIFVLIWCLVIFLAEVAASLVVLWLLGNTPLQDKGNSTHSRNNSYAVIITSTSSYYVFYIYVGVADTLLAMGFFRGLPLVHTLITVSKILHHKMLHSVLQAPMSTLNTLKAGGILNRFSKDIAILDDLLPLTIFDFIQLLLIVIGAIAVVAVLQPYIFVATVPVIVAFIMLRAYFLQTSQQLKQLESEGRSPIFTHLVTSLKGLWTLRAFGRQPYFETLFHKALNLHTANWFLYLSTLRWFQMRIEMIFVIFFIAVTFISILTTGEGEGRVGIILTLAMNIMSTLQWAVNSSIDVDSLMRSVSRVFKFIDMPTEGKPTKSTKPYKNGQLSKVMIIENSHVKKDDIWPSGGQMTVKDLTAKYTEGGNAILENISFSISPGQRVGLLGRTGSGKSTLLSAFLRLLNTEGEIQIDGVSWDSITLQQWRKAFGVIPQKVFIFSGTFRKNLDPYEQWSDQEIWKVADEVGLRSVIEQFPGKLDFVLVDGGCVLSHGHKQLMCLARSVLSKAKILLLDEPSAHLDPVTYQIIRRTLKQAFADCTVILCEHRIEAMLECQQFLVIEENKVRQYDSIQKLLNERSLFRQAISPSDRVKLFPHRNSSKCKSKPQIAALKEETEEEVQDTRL
Assay: Trans-Epithelial Current Clamp (TECC) assay using primary human bronchial epithelial cells
Assay type: cell-based
Details: maximum percent activity relative to positive control (co-corrector 0.15 μM + potentiator 0.45 μM = 100%); primary hBE cells F508del/F508del
Method in brief: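 Readout is the equivalent CFTR current (IEQ, from offset-corrected VT and RT) plus AUC from forskolin peak to bumetanide addition, recorded on TECC-24 at 36.5° C. Beforehand, homozygous F508del hBE cultures received correctors with co-corrector and potentiator basolaterally for 18-24 h at 37° C.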

SMILES | Emax (% Dual)
COc1cnc([C@@H]2C[C@]2(C(=O)NS(=O)(=O)c2cccc3nc(C)ccc23)c2cc(C)ccc2OC)cn1 (single isomer, unassigned) [Example 47] | 247
COc1cnc([C@H]2C[C@@]2(C(=O)NS(=O)(=O)c2cccc3nc(C)ccc23)c2cc(C)ccc2OC)cn1 (single isomer, unassigned) [Example 48] | 401
COc1cncc([C@@H]2C[C@]2(C(=O)NS(=O)(=O)c2cccc3nc(C)ccc23)c2cc(C)ccc2OC)c1 (single isomer, unassigned) [Example 51] | 135
COc1ccc(C)cc1[C@@]1(C(=O)NS(=O)(=O)c2cccc3nc(C)ccc23)C[C@H]1c1cncc(F)c1 (single isomer, unassigned) [Example 53] | 169

Other lines, results leading:

Emax (% Dual) | SMILES
364 | COc1ccc(C)cc1[C@]1(C(=O)NS(=O)(=O)c2cccc3nc(C)ccc23)C[C@@H]1c1cncc(C)n1 (single isomer, unassigned) [Example 46]
283 | COc1cncc([C@H]2C[C@@]2(C(=O)NS(=O)(=O)c2cccc3nc(C)ccc23)c2cc(C)ccc2OC)c1 (single isomer, unassigned) [Example 52]
359 | COc1ccc(C)cc1[C@]1(C(=O)NS(=O)(=O)c2cccc3nc(C)ccc23)C[C@@H]1c1cccnc1OC (single isomer, unassigned) [Example 50]

Same assay, conditions: primary hBE cells homozygous F508del/F508del; test C2 corrector with co-corrector and potentiator, 18-24 hours at 37° C.; equivalent CFTR current (IEQ)/AUC

SMILES | EC50 [µM]
COc1cnc([C@@H]2C[C@]2(C(=O)NS(=O)(=O)c2cccc3nc(C)ccc23)c2cc(C)ccc2OC)cn1 (single isomer, unassigned) [Example 47] | 0.0852
COc1cnc([C@H]2C[C@@]2(C(=O)NS(=O)(=O)c2cccc3nc(C)ccc23)c2cc(C)ccc2OC)cn1 (single isomer, unassigned) [Example 48] | 0.0471
COc1cncc([C@@H]2C[C@]2(C(=O)NS(=O)(=O)c2cccc3nc(C)ccc23)c2cc(C)ccc2OC)c1 (single isomer, unassigned) [Example 51] | > 0.3
COc1ccc(C)cc1[C@@]1(C(=O)NS(=O)(=O)c2cccc3nc(C)ccc23)C[C@H]1c1cncc(F)c1 (single isomer, unassigned) [Example 53] | > 0.3

Now those with a lower EC50, led by results:

EC50 [µM] | SMILES
0.0301 | COc1ccc(C)cc1[C@]1(C(=O)NS(=O)(=O)c2cccc3nc(C)ccc23)C[C@@H]1c1cncc(C)n1 (single isomer, unassigned) [Example 46]
0.0266 | COc1cncc([C@H]2C[C@@]2(C(=O)NS(=O)(=O)c2cccc3nc(C)ccc23)c2cc(C)ccc2OC)c1 (single isomer, unassigned) [Example 52]
0.0052 | COc1ccc(C)cc1[C@]1(C(=O)NS(=O)(=O)c2cccc3nc(C)ccc23)C[C@@H]1c1cccnc1OC (single isomer, unassigned) [Example 50]

Target: T2, F508delCFTR (Homo sapiens, UniProt P13569, DEL508-508)
T2 construct: expressed in transfected cells; host or cells: CFBE41o- human lung-derived epithelial cell line, doxycycline-inducible expression
T2 sequence (P13569 with tags, fused parts or gaps DEL508-508): as above
Assay: Cell Surface Expression-Horse Radish Peroxidase (CSE-HRP) assay in CFBE41o-F508delCFTR-HRP cells
Assay type: cell-based
Details: with co-corrector (2 μM); CFBE41o-F508delCFTR-HRP cells, 18-24 hours at 33° C., luminescence; read-out: EC50 (with co-corrector)
Method in brief: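 Test compounds were tested alone or alongside a co-corrector (2 μM), 8-point 3-fold series from 20 or 30 μM, for 18–24 h at 33 °C on doxycycline-induced CFBE41o-F508delCFTR-HRP cells. After washing, luminol luminescence reported cell-surface HRP-tagged CFTR, normalized to the positive control (% activity). EC50 was fitted with a variable Hill slope sigmoid from triplicate plates; Z′ >0.5 required.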

SMILES | EC50 [µM]
COc1cnc([C@@H]2C[C@]2(C(=O)NS(=O)(=O)c2cccc3nc(C)ccc23)c2cc(C)ccc2OC)cn1 (single isomer, unassigned) [Example 47] | 1.28
COc1cnc([C@H]2C[C@@]2(C(=O)NS(=O)(=O)c2cccc3nc(C)ccc23)c2cc(C)ccc2OC)cn1 (single isomer, unassigned) [Example 48] | 1.08
COc1cncc([C@@H]2C[C@]2(C(=O)NS(=O)(=O)c2cccc3nc(C)ccc23)c2cc(C)ccc2OC)c1 (single isomer, unassigned) [Example 51] | 4.38
COc1ccc(C)cc1[C@@]1(C(=O)NS(=O)(=O)c2cccc3nc(C)ccc23)C[C@H]1c1cncc(F)c1 (single isomer, unassigned) [Example 53] | 2.61

More lines, now with the values ahead:

EC50 [µM] | SMILES
1.52 | COc1ccc(C)cc1[C@]1(C(=O)NS(=O)(=O)c2cccc3nc(C)ccc23)C[C@@H]1c1cncc(C)n1 (single isomer, unassigned) [Example 46]
2.14 | COc1cncc([C@H]2C[C@@]2(C(=O)NS(=O)(=O)c2cccc3nc(C)ccc23)c2cc(C)ccc2OC)c1 (single isomer, unassigned) [Example 52]
0.954 | COc1ccc(C)cc1[C@]1(C(=O)NS(=O)(=O)c2cccc3nc(C)ccc23)C[C@@H]1c1cccnc1OC (single isomer, unassigned) [Example 50]

Same assay, conditions: with co-corrector (2 μM); normalized to on-plate positive control corrector (2 μM)

Maximum % activity (with co-corrector) [%] | SMILES
775 | COc1cnc([C@@H]2C[C@]2(C(=O)NS(=O)(=O)c2cccc3nc(C)ccc23)c2cc(C)ccc2OC)cn1 (single isomer, unassigned) [Example 47]
406 | COc1cncc([C@@H]2C[C@]2(C(=O)NS(=O)(=O)c2cccc3nc(C)ccc23)c2cc(C)ccc2OC)c1 (single isomer, unassigned) [Example 51]
625 | COc1ccc(C)cc1[C@@]1(C(=O)NS(=O)(=O)c2cccc3nc(C)ccc23)C[C@H]1c1cncc(F)c1 (single isomer, unassigned) [Example 53]

Same assay, conditions: without co-corrector; CFBE41o-F508delCFTR-HRP cells, 18-24 hours at 33° C., luminescence; read-out: EC50 (without co-corrector)

SMILES | EC50 [µM]
COc1cnc([C@@H]2C[C@]2(C(=O)NS(=O)(=O)c2cccc3nc(C)ccc23)c2cc(C)ccc2OC)cn1 (single isomer, unassigned) [Example 47] | 2.21
COc1cnc([C@H]2C[C@@]2(C(=O)NS(=O)(=O)c2cccc3nc(C)ccc23)c2cc(C)ccc2OC)cn1 (single isomer, unassigned) [Example 48] | 1.78
COc1cncc([C@@H]2C[C@]2(C(=O)NS(=O)(=O)c2cccc3nc(C)ccc23)c2cc(C)ccc2OC)c1 (single isomer, unassigned) [Example 51] | 5.44
COc1ccc(C)cc1[C@@]1(C(=O)NS(=O)(=O)c2cccc3nc(C)ccc23)C[C@H]1c1cncc(F)c1 (single isomer, unassigned) [Example 53] | 3.98

Other lines, results leading:

EC50 [µM] | SMILES
2.35 | COc1ccc(C)cc1[C@]1(C(=O)NS(=O)(=O)c2cccc3nc(C)ccc23)C[C@@H]1c1cncc(C)n1 (single isomer, unassigned) [Example 46]
3.32 | COc1cncc([C@H]2C[C@@]2(C(=O)NS(=O)(=O)c2cccc3nc(C)ccc23)c2cc(C)ccc2OC)c1 (single isomer, unassigned) [Example 52]
2.34 | COc1ccc(C)cc1[C@]1(C(=O)NS(=O)(=O)c2cccc3nc(C)ccc23)C[C@@H]1c1cccnc1OC (single isomer, unassigned) [Example 50]

Same assay, conditions: without co-corrector; normalized to on-plate positive control corrector (2 μM)

SMILES | Maximum % activity (without co-corrector) [%]
COc1cnc([C@@H]2C[C@]2(C(=O)NS(=O)(=O)c2cccc3nc(C)ccc23)c2cc(C)ccc2OC)cn1 (single isomer, unassigned) [Example 47] | 322
COc1cnc([C@H]2C[C@@]2(C(=O)NS(=O)(=O)c2cccc3nc(C)ccc23)c2cc(C)ccc2OC)cn1 (single isomer, unassigned) [Example 48] | 790
COc1cncc([C@@H]2C[C@]2(C(=O)NS(=O)(=O)c2cccc3nc(C)ccc23)c2cc(C)ccc2OC)c1 (single isomer, unassigned) [Example 51] | 108
COc1ccc(C)cc1[C@@]1(C(=O)NS(=O)(=O)c2cccc3nc(C)ccc23)C[C@H]1c1cncc(F)c1 (single isomer, unassigned) [Example 53] | 229

Now from value to compound:

Maximum % activity (without co-corrector) [%] | SMILES
783 | COc1ccc(C)cc1[C@]1(C(=O)NS(=O)(=O)c2cccc3nc(C)ccc23)C[C@@H]1c1cncc(C)n1 (single isomer, unassigned) [Example 46]
608 | COc1cncc([C@H]2C[C@@]2(C(=O)NS(=O)(=O)c2cccc3nc(C)ccc23)c2cc(C)ccc2OC)c1 (single isomer, unassigned) [Example 52]
951 | COc1ccc(C)cc1[C@]1(C(=O)NS(=O)(=O)c2cccc3nc(C)ccc23)C[C@@H]1c1cccnc1OC (single isomer, unassigned) [Example 50]
